Read-outs that look alike come from different tables or passages of the source.
Key:
malarial parasites [1] = test system: malarial parasites; set-up: method as in earlier work; conditions: cited from earlier work
[2] = Single dose pharmacokinetic study after oral and intravenous administration in male rats (serum, HPLC-UV); format: in vivo, Sprague-Dawley rats; conditions: for half-life: two-compartment model
Text: Male Sprague-Dawley (SD) rats weighing 250 ± 25 g for this study were obtained from institutional Laboratory Animal Division, CDRI, Lucknow, prior to study. Rats were given standard pellets for feeding and filtered water was given ad libitum and they were housed in well ventilated cages which were kept at room temperature on a regular 12-h light-dark cycle. Animals were kept in accordance with the guidelines of local ethical committee (Ethical approval 58/08/PKM/IAEC) for animal experimentation and principles of the guide for care and use of laboratory animals were followed (Department of Health Education and Welfare, number [NIH] 85-32). Oral and IV study was carried out in two sets (I and II). Each set contained two groups, that is, groups A and B. PK was carried out by dosing 97/63 in two groups (A and B) containing four rats in each group for sparse sampling. Young and healthy male SD rats weighing 250 ± 25 g (obtained from Laboratory Animal Division of CDRI) were housed in well ventilated cages and kept at room temperature 25 ± 2°C on a regular 12-h light-dark cycle. Animals were cared for in accordance with the principles of guide for care and use of laboratory animals. Animals in oral study group were fasted overnight to minimize the effects of food on pharmacokinetic profile of 97/63. Intravenous dose was administered as a single bolus injection through tail vein using a 26 G needle after dilating the tail vein [16]. The oral dose was administered using a 2 mL syringe and feeding needle. After intravenous and oral dose administration, rats were also monitored for physiological behavior. […] The intravenous formulation for single dose, 18 mg kg^−1, was a solution of 97/63 in DMSO. The oral formulation for single dose, 72 mg kg^−1, was also a solution of 97/63 in DMSO. The formulations were subjected to quality control (QC) checks to ensure their strength and content uniformity prior to use. The strength of formulation for intravenous and oral administration was 18 mg mL^−1 and 36 mg mL^−1. Compound 97/63 formulated in DMSO was administered to overnight fasted rats by oral and intravenous route. The dose volume factor for intravenous administration was 1 mL kg^−1, with 250 g rat receiving 0.25 mL, and for oral administration it was 2 mL kg^−1, with 250 g rat receiving 0.5 mL of formulation. Sparse sampling approach was used to collect blood samples by cardiac puncture. The total volume of blood withdrawn within 24 hours was less than 5% of blood volume. Blood samples were collected in glass tubes at 0.083, 0.25, 0.5, 0.75, 1, 1.5, 2, 3, 4, 6, 8, 10, 18, 24, 48, and 60 h after oral dose. Blood samples were stored at room temperature for 30 min to separate the serum. Serum was separated by centrifugation at 1500 ×g for 10 min and stored at –60°C until analysis. Analysis was performed within 30 days of sample collection. Curve fitting and estimation of pharmacokinetic parameters of 97/63 were carried out using WinNonlin (5.1) software program (Pharsight Corp, USA). The data were tested using Gauss-Newton algorithm, with noncompartment, one compartment, and two-compartment models after applying different weighting factor to the observed values of the concentrations. Decision on the suitability of a particular compartment model in explaining the data was undertaken based on the Akaike or Schwarz information criterion, correlation coefficient, and scatter of residuals.

malarial parasites [3] = test system: malarial parasites; set-up: method as in earlier work; conditions: cited from earlier work; remark: listed apart in the source
log P = format: physicochemical
[4] = Stability studies of 97/63 in rat serum samples (long-term, freeze-thaw, dry residue, autoinjector); format: physicochemical
Experimental: Long-term stability of 97/63 was carried by preparing QC samples at low, medium, and high concentrations in three replicates for four different days and stored at -60°C. These sets of samples were analyzed after 0, 7, 15, and 30 days of storage and their concentrations were read from the respective calibration standard curve. The results are expressed as % deviation from 0 days concentration. F-T stability of 97/63 in serum samples was determined by preparing QC of strengths low (10 ng mL^-1), medium (100 ng mL^-1), and high (500 ng mL^-1) in three replicates for four different days. One set of three concentrations was analyzed on day of preparation (no F-T cycle) before storing the remaining sets at -60°C. Other sets were analyzed after 1, 2, and […] cycles. Thawing was achieved by keeping the sealed tubes at room temperatures for 30 min. The results are expressed as % deviation with initial concentration. The effect of storage on dry residue stability was determined at QC 10 ng mL^-1 (low), 100 ng mL^-1 (medium), and 500 ng mL^-1 (high) concentration levels. All the samples (three replicates of three concentrations × 4 sets) were prepared and dry residue was stored in glass tubes sealed with aluminum foil and then with parafilm. One set in triplicate was reconstituted on day 1 with mobile phase and analyzed on the same day (without storage). The remaining sets were similarly analyzed on days 2, 4, and 8 and results are expressed as % deviation. After sample preparation, stability of 97/63 in the autoinjector was evaluated for 4 h; the maximum duration for which the sample may have to wait in the autoinjector tray for pending analysis and results are expressed in % deviation with initial injection (t = 0 h).

[5] = Sprague-Dawley, rat, oral 72 mg kg^−1, male rats, serum

C=C(c1ccc(OC(C)(C)CO)cc1)C1COC2(OO1)C1CC3CC(C1)CC2C3 (stereo not shown) [97/63]
potency against malarial parasites in vitro (malarial parasites [1]): good potency | clearance ([2]; Sprague-Dawley, rat, serum, intravenous 18 mg kg^−1, male rats): 148 mL/min/kg | Vd ([2]; Sprague-Dawley, rat, serum, intravenous 18 mg kg^−1, male rats, read-out: Vd): 135 ± 11.2 L/kg | AUC(0-inf) ([2]; Sprague-Dawley, rat, intravenous 18 mg kg^−1, male rats, serum): 2030 ± 574 ng·h/mL | C0 ([2]; Sprague-Dawley, rat, intravenous 18 mg kg^−1, male rats, serum, mean ± SD, N = 4): 1800 ± 330 ng/mL | AUC(0-inf) [2, 5]: 1270 ± 27 ng·h/mL | Tmax [2, 5]: 1 ± 0.7 h | Cmax ([2]; Sprague-Dawley, rat, oral 72 mg kg^−1, male rats, serum, mean ± SD, N = 4): 229 ± 64.3 ng/mL | metabolite peaks in rat serum ([2]; after oral and intravenous dose, HPLC-UV): No metabolite peaks were observed | half-life ([2]; male, Sprague-Dawley, rat, serum, iv, 18 mg/kg, intravenous 18 mg kg^−1, male rats, read-out: T 1/2 (α) distribution half-life (converted)): 0.45 ± 0.08 h | half-life ([2]; male, Sprague-Dawley, rat, serum, iv, 18 mg/kg, intravenous 18 mg kg^−1, male rats, read-out: T 1/2 (β) elimination half-life (converted)): 10.6 ± 0.16 h | bioavailability ([2]; male, Sprague-Dawley, rat, serum, oral, 72 mg kg^−1, oral 72 mg kg^−1 vs intravenous 18 mg kg^−1, male rats, read-out: % bioavailability (absolute)): ~16% | half-life ([2]; male, Sprague-Dawley, rat, serum, po, 72 mg/kg, oral 72 mg kg^−1, male rats, read-out: T 1/2 (α) distribution half-life (converted)): 0.84 ± 0.14 h | half-life ([2]; male, Sprague-Dawley, rat, serum, po, 72 mg/kg, oral 72 mg kg^−1, male rats, read-out: T 1/2 (β) elimination half-life (converted)): 10.6 ± 0.2 h | Cl ([2]; oral 72 mg kg^−1, male rats): 187 ± 1.2 mL/min/kg | Vd ([2]; oral 72 mg kg^−1, male rats): 172.31 ± 28.59 L/kg | absorption rate constant (K a) ([2]; oral 72 mg kg^−1, male rats): 0.82 h⁻¹ | clinical symptoms after dosing ([2]; oral 72 mg kg^−1 and intravenous 18 mg kg^−1, male rats, sampling period): No abnormal clinical symptoms | % bioavailability (absolute) ([2]; oral 72 mg kg^−1 vs intravenous 18 mg kg^−1, male rats): 15.66% | potency against malarial parasites in vivo (malarial parasites [3]): good potency | logP (log P): < 3.5 | reinjection (autoinjector) stability, deviation ([4]; 4 h gap, samples stored at 4°C): less than 10% | dry residue stability after extraction ([4]; 8 days stored at −60°C): stable | long-term stability in serum ([4]; 30 days, normal serum stored at −60°C): stable | freeze-thaw stability in serum ([4]; three F-T cycles): stable

From PMC4180634, “Pharmacokinetic Study and Bioavailability of a Novel Synthetic Trioxane Antimalarial Compound 97/63 in Rats” (Malaria Research and Treatment, 2014)
